SMILES strings stand for the structures. Several values for one entry are separate records, joined by “and”; a condition that tells them apart may be missing. Equal values may be shown once.

In one experiment the test system is pbp4 expression in CRB. As to the kind of experiment: Quantitative reverse transcriptase PCR of pbp4 transcript. The experiment is classed as cell-based, Staphylococcus aureus. The note with it: 25 μM, 3 hour. How it is done: (§1) Quantitative Reverse Transcriptase PCR. PBP4 transcript titers of bacterial cells exposed to putative PBP4 inhibitors were measured using real time quantitative PCR (RT-qPCR), as previously described (Chojnacki, et al. Antibiotics, 2021, 10, 369). Briefly, overnight cultures of S. aureus strains USA300, USA300Δpbp4, CRB, and CRBΔpbp4 were grown overnight in MH media, diluted (1:100 dilution) in fresh media and sub-cultured to a final OD600 nm of 0.2 at 37° C. with aeration. […] Cells were washed with PBS buffer, and collected via centrifugation at 1,250×g for 10 minutes. Total bacterial RNA was isolated from cell pellets using Qiagen® RNeasy kits, following the manufacturer's guidelines for prokaryotic RNA isolation (Qiagen®, Germantown, MD). A total of 2 μg RNA was DNase treated and repurified using RNeasy kits.
(§2) To measure pbp4 expression, a total of 400 ng of total bacterial RNA was used as a template for qRT-PCR using pbp4 primers (forward, 5′-[…]-3′; reverse, 5′-[…]-3′) and a total of 4 ng of total bacterial RNA was used as a template for primers specific for 16S rRNA (forward, 5′-[…]-3′; reverse, 5′-[…]-3′). Bacterial RNA was amplified and measured using PerfeCTa® SYBR Green FastMix® and qScript® cDNA SuperMix® kits following the manufacturer's recommendations (QuantaBio®, Beverly, MA). […]

For experiment [1], the system named is pbp4 expression in USA300. The description is as above. The experiment is classed as cell-based, Staphylococcus aureus. The note with it: 25 μM, 3 hour. How it is done:
as §1, §2

The subject of the next experiment is MRSA strain BAA-1770. The experiment is described as follows: Broth microdilution antibiotic potentiation. Format: cell-based, Staphylococcus aureus. The note with it: Ex. 3 compound at 60 μM. The method, then: Broth Microdilution Method for Antibiotic Potentiation with MRSA Strains. Bacteria were cultured for 6 hours in CAMHB and sub-cultured to 5×10^5 CFU/mL in CAMHB. Subcultures were aliquoted (4 mL) into culture tubes and then inoculated with compound from 10 mM or 100 mM stock in DMSO to the desired concentration. […] Bacteria treated with antibiotic alone served as the control. Samples from the secondary culture tubes were then aliquoted (200 μL) into the first row of wells of a 96-well microtiter plate. Rows 2-11 were filled (100 μL) with the remaining 4 mL of bacterial subculture containing the adjuvant. Row 12 was filled (100 μL) with uninoculated media. From row 1, 100 μL was transferred to row two and mixed 5-8 times before being transferred to row 3. This procedure was used to serial dilute the rest of the rows through 10. The microtiter plate was then covered in Press 'n Seal and incubated at 37° C.
A general note: Dilution methods test growth across graded concentrations, often in twofold steps.

The target in experiment [2] is recombinant B. subtilis PBP4 (Bacillus subtilis, UniProt P40750). The experiment is described as follows: BOCILLIN FL fluorescence polarization binding competition. Particulars: compound 50 μM; Ex. 3 series. How it is done: PBP4 BOCILLIN™ FL Binding Competition Assays. The ability of putative PBP4 inhibitors to impact the active site of recombinant PBP4 was assessed using two previously established BOCILLIN™-FL Penicillin (Penicillin V conjugated to BODIPY fluorescent dye) binding assays. First, fluorescence polarization assays were performed as previously described. Briefly, the indicated amount of the putative PBP4 inhibitor or control antibiotic was incubated with 1 μM recombinant B. subtilis PBP4 or S. aureus PBP2a in potassium phosphate buffer (40 mM K2HPO4 and 10 mM KH2PO4) for 1 hour in black 96-well microtiter plates (Corning Life Sciences®, Corning, NY). Following incubation, 1 μM (final concentration) BOCILLIN™ FL penicillin was added, and the mixture was incubated for 30 minutes. BOCILLIN™ FL fluorescence polarization was measured at (495nm excitation and 545nm emission) in a SpectraMax® M5 multimode plate reader (Molecular Devices®, San Jose, CA). All assays were repeated at least 8 times, averaged, and values falling outside of 2 standard deviations were considered outliers. Resulting data was plotted as percentage BOCILLIN™ FL binding inhibition=(T/U)×100; T=FL polarization of ((PBP4+BOCILLIN™ FL)−(PBP4+BOCILLIN™ FL+inhibitor compound)), U=FL polarization of ((PBP4+BOCILLIN™ FL)−(BOCILLIN™ FL)). Second, gel electrophoresis and fluorescence detection were used to measure BOCILLIN™ FL labeling of PBP4 treated with the known PBP4 inhibitor cefoxitin (positive control), kanamycin (negative control) or 9314848 (test compound). Briefly, 1 μM of recombinant PBP4 was mixed with 0, 50, 500, 2000, or 5000 μM 9314848 or control antibiotic in 50 mM phosphate buffer (pH 7.4) and incubated at 37° C. for 30 minutes. Next 40 μM of BOCILLIN™ FL was added to the reaction mixture and incubated for an additional 30 minutes at 37° C. Reactions were stopped by adding 5×SDS-PAGE gel loading dye, heated at 100° C. for 3 minutes and separated by electrophoresis in 12% SDS-PAGE (2 h, 120 Volts). BOCILLIN™ FL labeled PBP4 was imaged at λ=365 nm using a BioRad© Gel Doc EZ™ Imaging system and the gel was then subsequently stained with Bio-safe Coomassie Brilliant Blue stain (BioRad©, Hercules, CA, USA) to measure the amount of protein present in each reaction condition and analyzed using NIH-ImageJ software. The percent BOCILLIN™ FL binding was calculated by first normalizing the protein present in each reaction condition to that of untreated control and subsequently applying each reaction's protein normalization factor to each reaction's fluorescent signal. The percentage BOCILLIN™ FL binding inhibition was then calculated as the normalized band intensity of antibiotic/compound treated sample as compared to control sample (PBP4+BOCILLIN™ FL in the absence of compound).
To more directly evaluate whether 9314848 is likely to affect PBP4 function, the compound's ability to bind recombinant PBP4 was measured using BOCILLIN™ FL fluorescence polarization displacement assays. The premise for the assay is that the fluorescence polarization of the fluorescently labeled β-lactam, penicillin V (BOCILLIN™ FL), will increase upon binding to its cognate target (i.e., PBP4). Further, compounds that bind PBP4 and inhibit its function would impede BOCILLIN™ FL binding thereby allowing assessment of the protein binding affinity of 9314848 using a simple fluorescence reduction assay.

The next experiment deals with strain CRBΔpbp4. As to the kind of experiment: microbe, parasite or virus in culture. The experiment is classed as cell-based, Staphylococcus aureus. The note with it: CRBΔpbp4.

Sequence of recombinant B. subtilis PBP4 (P40750 22-624): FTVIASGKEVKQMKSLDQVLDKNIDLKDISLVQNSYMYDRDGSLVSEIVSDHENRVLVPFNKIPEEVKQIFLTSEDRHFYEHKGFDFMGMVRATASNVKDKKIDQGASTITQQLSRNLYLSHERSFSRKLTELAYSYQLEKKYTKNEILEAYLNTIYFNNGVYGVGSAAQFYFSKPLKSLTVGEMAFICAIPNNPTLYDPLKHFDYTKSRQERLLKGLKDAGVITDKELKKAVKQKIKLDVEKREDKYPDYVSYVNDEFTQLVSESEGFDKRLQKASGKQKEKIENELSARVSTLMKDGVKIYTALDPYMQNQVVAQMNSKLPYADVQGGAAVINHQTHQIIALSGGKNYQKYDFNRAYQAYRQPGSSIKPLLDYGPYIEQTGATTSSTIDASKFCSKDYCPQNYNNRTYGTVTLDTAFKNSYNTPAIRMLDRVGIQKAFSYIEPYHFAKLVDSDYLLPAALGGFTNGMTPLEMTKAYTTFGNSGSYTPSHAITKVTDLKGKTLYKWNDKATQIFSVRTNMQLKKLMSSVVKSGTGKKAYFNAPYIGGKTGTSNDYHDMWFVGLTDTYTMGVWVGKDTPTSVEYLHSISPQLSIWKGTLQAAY

Consider `O=C(Nc1ccc2[nH]c(-c3cccs3)nc2c1)c1ccco1` [Compound 1 (7729837)], for which the “pbp4 expression (qRT-PCR)” value in the experiment on pbp4 expression in CRB was “significantly reduced”; in experiment [1] it was “slightly reduced”. Besides, the “Oxacillin MIC fold reduction” value with MRSA strain BAA-1770 turned out to be 32. Besides, in experiment [2], the “Percentage Bocillin Displacement (%), PBP4 binding” value was 25.66% and 25.66 ± 18.09%. The “Cmpd (putative PBP4 inhibitor) MIC, Alone” value in the experiment on strain CRBΔpbp4 stood at 400 µM. In addition, in the experiment on strain CRBΔpbp4, the “Fold-decrease in ceftobiprole resistance in combination” value was determined as 0. Further, the “Cmpd concentration, Combination” value with strain CRBΔpbp4 (with ceftobiprole) was 50 µM. Besides, the “BPR (ceftobiprole) MIC, Combination” value in the experiment with strain CRBΔpbp4 (with putative PBP4 inhibitor) stood at 0.25 µg/mL.

Source of the values: patent US20260124213A1, “STAPHYLOCOCCUS AUREUS PBP4 INHIBITORS AND METHOD OF USE” (UNIVERSITY OF ROCHESTER, priority 2022, published 2026).
